Experimental data reported in patent US20240165202A1, “USES OF FGF21 POLYPEPTIDES AND FUSION POLYPEPTIDES THEREOF” (SUNSHINE LAKE PHARMA CO., LTD., priority 2021, published 2024).

What was measured:
[1] = system: ob/ob mice nonalcoholic steatohepatitis (NASH) model; test: ob/ob mice high-fat diet NASH model, 6 weeks dosing: blood glucose and body weight; type: in vivo; details: 10 nmol/kg
Description: (§1) 70 Male ob/ob mice (Changzhou Cavens Laboratory Animal Co., Ltd.) weighed about 43-45 g were fed with high-fat diet (D12492, Research Diets, Inc., New Brunswick, NJ) for 9 weeks to establish a nonalcoholic steatohepatitis (NASH) model. 3 Weeks after HFD feeding, the therapeutic efficacy of the compounds dual target fusion protein 1 #, Fc-FGF21 (single target 1 #) and Dulaglutide were tested after 6 weeks of dosing. The experimental animals were randomly divided into 5 groups according to body weight and blood glucose after […] of HFD feeding: the model group (group-1, n=10), the dual target fusion protein 1 #-3 nmol/kg group (group-2, n=10); the dual target fusion protein 1 #-10 nmol/kg group (group-3, […]); Fc-FGF21-10 nmol/kg group (group-4, n=10); Dulaglutide-10 nmol/kg (group-5, n=10). The model group was administrated PBS. The groups of dual target fusion protein 1 #, Fc-FGF21, and Dulaglutide were administrated twice a week for a total of 6 weeks. Feed intake, water intake and body weight of animals were recorded every two days after the start of HFD feeding until the end of the experiment. Blood glucose was measured at 0, 2, 7, 24, 48, 72 hours after the first administration, and then twice a week. At the end of the experiment, the animals were fasted to detect fasting blood glucose.

[2] = system: ob/ob mice nonalcoholic steatohepatitis (NASH) model; test: ob/ob mice high-fat diet NASH model, 6 weeks dosing: liver pathological scores; type: in vivo; details: 10 nmol/kg twice a week, Mean ± SEM, n = 10
Description: as §1

[3] = system: ob/ob mice nonalcoholic steatohepatitis (NASH) model; test: ob/ob mice high-fat diet NASH model, 6 weeks dosing: serum lipids, liver weight, liver function, liver lipids; type: in vivo; details: 10 nmol/kg
Description: as §1

[4] = system: high-fat-induced C57BL/6 mice model; test: High-fat diet induced C57BL/6 mice: serum lipids, ALT/AST, liver weight, liver homogenate lipids; type: in vivo; details: 16th week of administration
Excerpt: (§2) After 16 weeks of high-fat diet feeding (D12492, Research Diets, Inc., New Brunswick, NJ), C57BL/6 mice (purchased from Hunan SJA Laboratory Animal Co., Ltd.) were randomly divided into vehicle group or treatment group according to the measured blood glucose and body weight. The study included control group with normal diet, high-fat diet Model group was administrated with vehicle PBS, subcutaneous injection of semaglutide once a day (QD) 10 nmol/kg, dual target 1 # was administrated twice weekly (BIW), the low dose was 3 nmol/kg and the high dose was 10 nmol/kg, 7 animals in each group. The drug groups were administrated the corresponding drugs according to the administration frequency for 16 consecutive weeks, and the high-fat diet was continued during the administration period until the end of the experiment. The random blood glucose, body weight and intraperitoneal glucose tolerance IPGTT of mice were monitored.
(§3) At the end of the experiment of Example 4, that is, the 16th week of administration, the animals were fasted overnight and could drink water. After the animals were weighed, the orbital blood was collected, serum was separated, and serum lipids (TG (triglyceride), TC (total cholesterol)) and liver function indexes ALT (alanine aminotransferase)/AST (aspartate aminotransferase) were detected by an automatic biochemical analyzer. Serum insulin levels were detected by Elisa kit, and the HOMA-IR index was calculated according to the formula, that is, HOMA-IR=fasting blood glucose (blood glucose value at 0 time of IPGTT in the 16th week)×fasting insulin/22.5. After the blood was collected, the liver, subcutaneous fat, epididymal fat and perirenal fat were dissected and weighed. About 40-60 mg of liver tissue was weighed and put into a homogenization tube, 1 mL of absolute ethanol was added for homogenization, then the homogenate was taken and centrifuged at 4° C., 3,500 rpm for 10 min. The supernatant was taken, and the concentrations of TG and TC in the supernatant were detected by an automatic biochemical analyzer, and then the contents of TG and TC were calculated according to the weighed liver weight

[5] = system: high-fat-induced C57BL/6 mice model; test: High-fat diet induced C57BL/6 mice, 16 weeks dosing: random blood glucose, IPGTT, fasting glucose, insulin, HOMA-IR, body weight, fat mass; type: in vivo
Excerpt: as §2, §3

[6] = system: high-fat diet induced C57BL/6 mice model; test: High-fat diet induced C57BL/6 mice: liver histopathology NAS and fibrosis scores; type: in vivo; details: 10 nmol/kg (semaglutide QD, dual target 1# BIW), 16 weeks, Mean ± SD, n = 6-7
Excerpt: as §2
The left lobe of the liver obtained by dissection in Example 5 was immersed in a 50 mL centrifuge tube filled with formalin to prepare liver disease sections, and the formalin liver tissue was subjected to wax block making, sectioning, HE staining, and HE staining slices were mailed to Suzhou KCl Co., Ltd. for NAS scoring; fibrosis was assessed by Sirius red staining, and the scores were scored according to the severity of fibrosis, with a score of 1-3. Liver histopathological changes were observed under light microscope and NAS/fibrosis scores were performed.

[7] = mouse models; cited from earlier work
[8] = 10 nmol/kg (semaglutide QD, dual target 1# BIW), 16 weeks, Mean ± SD, n = 6-7

Dulaglutide
weight growth rate compared with the model group ([1]; D1 to D43): decreased significantly | average weight loss rate ([1]; D1 to D43, p<0.01 or 0.001): 8.9% | blood glucose level versus model group ([1]; after 5 days, P>0.05): less different from that of the model group | Inflammatory infiltration Scores [2]: 0.57 ± 0.13 | Liver ballooning Scores [2]: 0.43 ± 0.26 | NAS scores [2]: 3.80 ± 0.41 | Steatosis Scores [2]: 2.80 ± 0.07 | level of serum TG compared with the model group [3]: significantly decreased | serum TC level compared with the model group [3]: not significantly decreased

Semaglutide
TG in liver homogenate compared with the Model [4]: significantly reduce | liver absolute weight compared with the Model [4]: significantly reduce | serum ALT level compared with the Model [4]: significantly reduce | serum AST level compared with the Model [4]: significantly reduce | serum TC compared with Model [4]: significantly reduce | serum TG compared with Model [4]: significantly reduce | Epididymal fat [5, 8]: 1.0 ± 0.5 g | Perirenal fat [5, 8]: 0.6 ± 0.6 g | Subcutaneous fat [5, 8]: 0.9 ± 1.0 g | Total Fat [5, 8]: 2.6 ± 2.1 g | weight loss ([5]; 10 nmol/kg, 16 weeks): 24.3% | blood glucose AUCO-72h after the first administration, compared with the Model group ([5]; 10 nmol/kg, p<0.05): significantly reduce | body weight growth rate compared with the Model group ([5]; 16 weeks, P<0.001): significantly reduce | insulin level compared with Model ([5]; end of experiment, serum, P<0.001): significantly reduce | HOMA-IR index compared with Model ([5]; end of experiment, P<0.001): significantly reduce | IPGTT: blood glucose after glucose administration and area under the blood glucose curve, compared with Model ([5]; weeks 2, 8 and 16, 30-90 min or 15-90 min after glucose): significantly reduce | NAS total score [6]: 0.0 ± 0.0 | Fibrosis Manual Score ([6]; Sirius red, score 1-3): 1.5 ± 0.5 | Balloon degeneration ([6]; score): 0.0 ± 0.0 | Inflammation ([6]; score): 0.0 ± 0.0 | Liver steatosis ([6]; score): 0.0 ± 0.0

B1: FGF21: member of the FGF family (fibroblast growth factors); native FGF21 with short half-life (protein, UniProt Q9NSA1 29-209, looked up)
Fibroblast growth factor 21: HPIPDSSPLLQFGGQVRQRYLYTDDAQQTEAHLEIREDGTVGGAADQSPESLLQLKALKPGVIQILGVKTSRFLCQRPDGALYGSLHFDPEACSFRELLLEDGYNVYQSEAHGLPLHLPGNKSPHRDPAPRGPARFLPLPGLPPALPEPPGILAPQPPDVGSSDPLSMVGPSQGRSPSYAS
half-life [7]: about 1 h
